Series [1] relates to aged rats. As to conditions: chronic treatment; cited from earlier work.
For series [2] the following is noted: aqueous solution at pH 7 and 20° C.; cited from earlier work.
Series [3] relates to human diploid fibroblast cells. The following applies: cited from earlier work.
For series [4], the system named is aged animal model. The following applies: daily intraperitoneal injection, male and female populations; cited from earlier work.
The test system of series [5] is lipopolysaccharide (LPS) administered to rats. The following applies: cited from earlier work.
A short description of series [6]: Antioxidant assay: AIBN-initiated oxidation of cumene to cumene hydroperoxide, followed by 1H NMR. Format: physicochemical. As to conditions: atmospheric oxygen, 37° C., FIG. 1. The method, then: In the following example, comparative testing of the antioxidant activity of azulenyl nitrone compounds of the invention against a control, was performed. The assay was based on the well-established oxidation of cumene to cumene hydroperoxide by atmospheric oxygen at 37° C. in the presence of the free radical initiator AIBN (Blanchard, H. S. J. Am. Chem. Soc. (1959) 81:4548; Characterization of products formed during the autoxidation of beta carotene. Handelman, G. J., van Kujik, F. J. G. M., Chatterjee, A., Krinsky, N. I. Free Rad. Biol. Med. (1991) 10: 427-37). The progress of the peroxidation reaction is conveniently followed and quantified by 1H NMR spectroscopy by monitoring the appearance and increasing integration of the singlet arising from the methyl groups of cumene hydroperoxide. The use of a long, low power, selective pulse (Shaped radiofrequency pulses in high resolution NMR. Freeman, R. J. Prog. Nuc. Mag. Spec. (1998) 32:59) allowed the growth of the cumene hydroperoxide methyl group singlet to be accurately measured in the presence of a huge excess of cumene. This was shown by using known concentrations of commercially available cumene hydroperoxide to calibrate the peak areas.

As to `Cc1c(C)c2c(c(C)c1O)CC[C@@](C)(CCC[C@H](C)CCC[C@H](C)CCCC(C)C)O2` [vitamin E, alpha-tocopherol], the “age-related changes in cognitive performance” value in series [1] is given as “benefit (i.e., improve)”. Moreover, the “one-electron oxidative potential (vs. NHE)” value in series [2] was 0.48 V.
On to `CC(C)(C)[N+]([O-])=Cc1ccccc1` [PBN, alpha-phenyl N-tert-butylnitrone], for which the “age-related changes in cognitive performance” value in series [1] is recorded as “benefit (i.e., improve)”. Besides, in series [3], the onset of senescence entry is given as “effectively delayed the onset of senescence”. Also, the lifespan entry in series [4] is on record as “remarkable extension of the lifespan”.
For `COC=Cc1cc(/C=C/c2cc(/C=[N+](\[O-])C(C)(C)C)c3cc(C(C)C)ccc(C)c2-3)c2c(C)ccc(C(C)C)cc1-2` [I], the melting point (usually the temperature of the solid-liquid transition) was 235 °C (dec.).
As to `CC1(C)Cc2ccccc2C=[N+]1[O-]` [MDL 101,002], in series [5], the LPS-induced leukopenia result is “failed to prevent leukopenia”; the LPS-induced pulmonary edema entry is “prevented pulmonary edema”; the LPS-induced thrombocytopenia entry is “partially reduced thrombocytopenia”; the “organ dysfunction and cytokine secretion induced by LPS” value is given as “reduces”.
As for `Cc1ccc(C(C)C)cc2c(C=C3SCCCS3)cc(/C=C/c3cc(/C=[N+](\[O-])C(C)(C)C)c4cc(C(C)C)ccc(C)c3-4)c1-2` [STNXY], the “potency as nitrone-based chain breaking antioxidants / free-radical scavenging/antioxidant activity” value in series [6] was “remarkable potency”.
Turning to `Cc1ccc(C(C)C)cc2c(/C=[N+](\[O-])C(C)(C)C)cc(/C=C/c3cc(/C=[N+](\[O-])C(C)(C)C)c4cc(C(C)C)ccc(C)c3-4)c1-2` [STAZN, Stilbazulenyl Nitrone], the “potency as nitrone-based chain breaking antioxidants / free-radical scavenging/antioxidant activity” value in series [6] is recorded as “remarkable potency”.

Source of the values: patent publication US7910729B2, “Azulenyl nitrone spin trapping agents, methods of making and using same” (The Florida International University Board of Trustees, priority 2004, dated 2011).
